Drawing on US8134015B2, “Compound inhibiting in vivo phosphorous transport and medicine containing the same” (Kyowa Hakko Kirin Co., Ltd., priority 2003, dated 2012), this text covers IC50 and inhibition for 28 molecules.

Where only a bound is given, the exact number is not on record here.

One experiment concerns the target T1, rat NaPi-2b (Rattus norvegicus, UniProt Q9JJ09).
T1 construct: expressed in transfected cells; host or cells: Xenopus oocytes injected with cRNA
T1 sequence (Q9JJ09 1-695): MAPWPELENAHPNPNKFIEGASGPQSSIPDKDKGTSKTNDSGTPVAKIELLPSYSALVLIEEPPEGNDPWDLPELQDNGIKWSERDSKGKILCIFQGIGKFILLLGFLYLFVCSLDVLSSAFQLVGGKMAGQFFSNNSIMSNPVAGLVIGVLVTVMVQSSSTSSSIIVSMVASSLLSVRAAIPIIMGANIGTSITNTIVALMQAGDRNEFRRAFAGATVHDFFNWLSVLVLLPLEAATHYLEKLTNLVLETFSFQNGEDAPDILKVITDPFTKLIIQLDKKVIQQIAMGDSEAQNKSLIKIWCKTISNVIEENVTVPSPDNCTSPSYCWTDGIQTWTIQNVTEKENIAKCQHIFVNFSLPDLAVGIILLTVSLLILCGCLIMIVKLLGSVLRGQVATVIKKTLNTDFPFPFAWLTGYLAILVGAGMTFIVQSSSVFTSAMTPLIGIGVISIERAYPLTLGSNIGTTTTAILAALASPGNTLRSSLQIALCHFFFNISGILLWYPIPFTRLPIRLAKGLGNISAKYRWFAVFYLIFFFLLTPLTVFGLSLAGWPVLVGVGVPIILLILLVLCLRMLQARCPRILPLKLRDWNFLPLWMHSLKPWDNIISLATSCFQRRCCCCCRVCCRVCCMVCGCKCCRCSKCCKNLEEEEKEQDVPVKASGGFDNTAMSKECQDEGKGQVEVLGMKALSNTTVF
Put plainly: Sodium-dependent phosphate uptake of Xenopus oocytes which expressed NaPi-2b (32P). Format: cell-based. As to conditions: Xenopus oocytes expressing rat NaPi-2b, 32P radioactive phosphorus; read-out: IC50 (phosphate uptake inhibitory activity). In short, it runs like this:
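Steps: rat NaPi-2b cDNA cloned from small intestine; cRNA made and injected into oocytes; 2-day expression; 32P phosphate uptake with compound; % inhibition at 300/100 μM taken from one curve.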
Broadly, the IC50 is the point on the concentration scale where inhibition reaches its midpoint. In the case of `CCN(CC)CCN(C)Cc1cccc(C(=O)Nc2scc(C)c2C(=O)N/N=C/c2ccc(F)cc2)c1` [Compound 565, 3-{[(2-Diethylamino-ethyl)-methyl-amino]-methyl}-N-[3-(4-fluoro-benzylidene-hydrazinocarbonyl)-4-methyl-thiophen-2-yl]-benzamide], the IC50 amounted to 13 µM.

`Cc1ccc(/C=N/NC(=O)c2ccccc2NC(=O)c2ccccn2)cc1C` [Compound 507, Pyridin-2-carboxylic acid [2-(3,4-dimethyl-benzylidene-hydrazinocarbonyl)-phenyl]-amide]: the 50% inhibitory concentration (IC50) was found to be 1.86 µM.

Consider `O=C(N/N=C/c1cccc(F)c1)c1cc(Br)ccc1NC(=O)C1CCCCC1` [Compound 509, Cyclohexanecarboxylic acid [4-bromo-2-(3-fluoro-benzylidene-hydrazinocarbonyl)-phenyl]-amide], for which the IC50 came out at 13.6 µM.

With `COc1ccc(C(=O)Nc2ccccc2C(=O)N/N=C/c2ccsc2)cc1OC` [Compound 24, 3,4-Dimethoxy-N-[2-(thiophen-3-ylmethylene-hydrazinocarbonyl)-phenyl]-benzamide], the concentration for half-maximal inhibition (IC50) was found to be 20.9 µM.

As to `O=C(Nc1ccc(Br)cc1C(=O)N/N=C/c1ccc(Cl)c(C(F)(F)F)c1)c1cccs1` [Compound 162, Thiophene-2-carboxylic acid [4-bromo-2-(4-chloro-3-trifluoromethyl-benzylidene-hydrazinocarbonyl)-phenyl]-amide], the half-inhibitory concentration (IC50) worked out at 3.11 µM.

As to `COc1ccc(C(=O)Nc2scc(C)c2C(=O)N/N=C/c2ccc(C)c(C)c2)cc1OC` [Compound 521, N-[3-(3,4-Dimethyl-benzylidene-hydrazinocarbonyl)-4-methyl-thiophen-2-yl]-3,4-dimethoxy-benzamide], the 50% inhibitory concentration (IC50) amounted to 1.24 µM.

As for `COc1cc(OC)cc(C(=O)Nc2ccc(Br)cc2C(=O)N/N=C/c2ccc(C)cc2)c1` [Compound 119, N-[4-Bromo-2-(4-methyl-benzylidene-hydrazinocarbonyl)-phenyl]-3,5-dimethoxy-benzamide], the IC50 is 0.74 µM.

As to `CCN(CCO)Cc1cccc(C(=O)Nc2ccc(Cl)cc2C(=O)N/N=C/c2cccc(O)c2)c1` [Compound 430, N-[4-Chloro-2-(3-hydroxy-benzylidene-hydrazinocarbonyl)-phenyl]-3-{[ethyl-(2-hydroxy-ethyl)-amino]-methyl}-benzamide], the IC50 stood at 4.53 µM.

In the case of `COc1cccc(CNNC(=O)c2cc(Br)ccc2NC(=O)c2ccc(CN3CCC(N4CCCCC4)CC3)cc2)c1` [Compound 378, 4-[1,4′]Bipiperidinyl-1′-ylmethyl-N-{4-bromo-2-[N′-(3-methoxy-benzyl)-hydrazinocarbonyl]-phenyl}-benzamide], the 50% inhibitory concentration (IC50) turned out to be 4.35 µM.

For the molecule `Cc1csc(NC(=O)c2cccc(CSCCCO)c2)c1C(=O)N/N=C/c1ccc(Cl)c(C(F)(F)F)c1` [Compound 561, N-[3-(4-Chloro-3-trifluoromethyl-benzylidene-hydrazinocarbonyl)-4-methyl-thiophen-2-yl]-3-(3-hydroxy-propylsulfanylmethyl)-benzamide], the IC50 is 0.31 µM.

Regarding `COc1ccc(/C=N/NC(=O)c2cc(OCCN3CCCCC3)ccc2NC(=O)c2cccc(CSCCO)c2)cc1` [Compound 1045, 3-(2-Hydroxy-ethylsulfanylmethyl)-N-[2-(4-methoxy-benzylidene-hydrazinocarbonyl)-4-(2-piperidin-1-yl-ethoxy)-phenyl]-benzamide], the IC50 is 13.1 µM.

`CC(O)CN(Cc1cccc(C(=O)Nc2sccc2C(=O)N/N=C/c2ccc(F)cc2)c1)CC(C)O` (stereo not shown) [Compound 672, 3-{[Bis-(2-hydroxy-propyl)-amino]-methyl}-N-[3-(4-fluoro-benzylidene-hydrazinocarbonyl)-thiophen-2-yl]-benzamide]: the half-maximal inhibitory concentration (IC50) worked out at 31.2 µM.

On to `O=C(Nc1ccc(Br)cc1C(=O)N/N=C/c1ccc(Cl)c(C(F)(F)F)c1)c1ccno1` [Compound 513, Isoxazole-5-carboxylic acid [4-bromo-2-(4-chloro-3-trifluoromethyl-benzylidene-hydrazinocarbonyl)-phenyl]-amide], for which the IC50 was determined as 16 µM.

With `Cc1ccc(/C=N/NC(=O)c2cc(Br)ccc2NC(=O)c2cccc(CSc3nc[nH]n3)c2)cc1C` [Compound 267, N-[4-Bromo-2-(3,4-dimethyl-benzylidene-hydrazinocarbonyl)-phenyl]-3-(1H-[1,2,4]triazol-3-ylsulfanylmethyl)-benzamide], the IC50 was determined as 0.43 µM.

As to `COc1cc(OC)cc(C(=O)Nc2ccc(Br)cc2C(=O)N/N=C/c2ccc(Cl)cc2)c1` [Compound 117, N-[4-Bromo-2-(4-chloro-benzylidene-hydrazinocarbonyl)-phenyl]-3,5-dimethoxy-benzamide], the IC50 was 0.58 µM.

As for `CCN(CC)CCN(C)Cc1cccc(C(=O)Nc2ccc(I)cc2C(=O)N/N=C/c2ccc(O)cc2)c1` [Compound 481, 3-{[(2-Diethylamino-ethyl)-methyl-amino]-methyl}-N-[2-(4-hydroxy-benzylidene-hydrazinocarbonyl)-4-iodo-phenyl]-benzamide], the 50% inhibitory concentration (IC50) came to 12.1 µM.

Turning to `CCN(CC)CCN(C)Cc1cccc(C(=O)Nc2c(C)csc2C(=O)N/N=C/c2ccc(C)cc2)c1` [Compound 343, 3-{[(2-Diethylamino-ethyl)-methyl-amino]-methyl}-N-[4-methyl-2-(4-methyl-benzylidene-hydrazinocarbonyl)-thiophen-3-yl]-benzamide], the IC50 amounted to 124 µM.

With `O=c1c2cc(Br)ccc2nc(-c2cccc(CSCCO)c2)n1/N=C/c1ccc(Cl)c(C(F)(F)F)c1` [Compound 698, 6-Bromo-3-[(4-chloro-3-trifluoromethyl-benzylidene-)-amino]-2-[3-(2-hydroxy-ethylsulfanylmethyl)-phenyl]-3H-quinazolin-4-one], the half-inhibitory concentration (IC50) was less than 3 µM.

As to `CCN(CC)CCN(CCN(CC)CC)Cc1cccc(C(=O)Nc2ccc(N3CCCCC3)cc2C(=O)N/N=C/c2ccc(F)cc2)c1` [Compound 907, 3-{[Bis-(2-diethylamino-ethyl)-amino]-methyl}-N-[2-(4-fluoro-benzylidene-hydrazinocarbonyl)-4-piperidin-1-yl-phenyl]-benzamide], the IC50 is 6.75 µM.

Consider `CCN(CCO)Cc1cccc(C(=O)Nc2ccc(Cl)cc2C(=O)N/N=C/c2cccc(C)c2)c1` [Compound 424, N-[4-Chloro-2-(3-methyl-benzylidene-hydrazinocarbonyl)-phenyl]-3-{[ethyl-(2-hydroxy-ethyl)-amino]-methyl}-benzamide], for which the half-maximal inhibitory concentration (IC50) was found to be 1.79 µM.

Turning to `CC(O)CN(Cc1cccc(C(=O)Nc2sc3c(c2C(=O)N/N=C/c2ccc(Cl)c(C(F)(F)F)c2)CCC3)c1)CC(C)O` (stereo not shown) [Compound 808, 3-{[Bis-(2-hydroxy-propyl)-amino]-methyl}-N-[3-(4-chloro-3-trifluoromethyl-benzylidene-hydrazinocarbonyl)-5,6-dihydro-4H-cyclopenta[b]thiophen-2-yl]-benzamide], the concentration for half-maximal inhibition (IC50) stood at 1.97 µM.

Consider `Cc1ccc(/C=N/n2c(-c3cccc(CSCCO)c3)nc3ccc(Br)cc3c2=O)cc1C` [Compound 697, 6-Bromo-3-[(3,4-dimethyl-benzylidene-)-amino]-2-[3-(2-hydroxy-ethylsulfanylmethyl)-phenyl]-3H-quinazolin-4-one], for which the half-maximal inhibitory concentration (IC50) is less than 3 µM.

As for `Cc1ccc(/C=N/NC(=O)c2cc(Cl)ccc2NC(=O)c2cccnc2)cc1` [Compound 187, N-[4-Chloro-2-(4-methyl-benzylidene-hydrazinocarbonyl)-phenyl]-nicotinamide], the IC50 came to 7.87 µM.

Regarding `CCN(CC)CCNCc1cccc(C(=O)Nc2scc(C)c2C(=O)N/N=C/c2cccc(F)c2)c1` [Compound 584, 3-[(2-Diethylamino-ethylamino)-methyl]-N-[3-(3-fluoro-benzylidene-hydrazinocarbonyl)-4-methyl-thiophen-2-yl]-benzamide], the half-inhibitory concentration (IC50) was less than 3 µM.

For the molecule `O=C(Nc1ccc(Cl)cc1C(=O)N/N=C/c1ccc(Cl)c(C(F)(F)F)c1)c1cccnc1` [Compound 189, N-[4-Chloro-2-(4-chloro-3-trifluoromethyl-benzylidene-hydrazinocarbonyl)-phenyl]-nicotinamide], the half-maximal inhibitory concentration (IC50) stood at 1.47 µM.

The experiment is the same for the next values; noted with them: phosphate uptake, oocytes expressing rat NaPi-2b; 300 μM, determined from inhibition curve.
For orientation: inhibition means the relative decrease from the control value, in per cent. Low readings indicate little suppression, high ones strong suppression. For `Cc1ccc(CNNC(=O)c2ccccc2NC(=O)c2ccncc2)cc1` [Compound 545, N-{2-[N′-(4-Methyl-benzyl)-hydrazinocarbonyl]-phenyl}-isonicotinamide], the inhibition at 300 µM was determined as 88.8%.

As to `COCCOc1cc(NC(=O)c2cccc(CSCC(O)CO)c2)c(C(=O)N/N=C/c2ccc(C)cc2)cc1OCCOC` (stereo not shown) [Compound 1014, N-[4,5-Bis-(2-methoxy-ethoxy)-2-(4-methyl-benzylidene-hydrazinocarbonyl)-phenyl]-3-(2,3-dihydroxy-propylsulfanylmethyl)-benzamide], testing at 300 µM gave an inhibition of 55.2%.

`COc1ccc(/C=N/NC(=O)c2cccnc2NC(=O)c2cccc(CN(CC(C)O)CC(C)O)c2)cc1` (stereo not shown) [Compound 968, 3-{[Bis-(2-hydroxy-propyl)-amino]-methyl}-N-[3-(4-methoxy-benzylidene-hydrazinocarbonyl)-pyridin-2-yl]-benzamide] returned an inhibition at 300 µM of 52.7%.
